Literature values as cited in patent US8257686B2, “Compositions and methods relating to prevention of chemotherapy-induced alopecia” (HSF Pharmaceuticals S.A., priority 2000, dated 2012).

Test system: chemotherapy-induced hair loss
Conditions: review Dorr 1998; Sredni et al. 1996

| SMILES | prevention of chemotherapy-induced hair loss |
| --- | --- |
| Cc1c(C)c2c(c(C)c1O)CC[C@@](C)(CCC[C@H](C)CCC[C@H](C)CCCC(C)C)O2 [alpha-tocopherol] | failed |
| C=C1/C(=C\C=C2/CCC[C@]3(C)[C@@H]([C@H](C)CCCC(C)(C)O)CC[C@@H]23)C[C@@H](O)C[C@@H]1O [calcitriol] | failed |
| C=C1/C(=C\C=C2/CCC[C@]3(C)[C@@H]([C@H](C)CCCC(C)(C)O)CC[C@@H]23)C[C@@H](O)C[C@@H]1O [1,25-dihydroxyvitamin D3] | showed a marked sex preference |
| Cl[TeH]1(Cl)(Cl)OCCO1 [AS101, ammonium trichloro (dioxy-ethylene-0,0′) tellurate] | More promising results |
